Laboratory results as given in US11846640B2, “Identification of anticoagulants in a sample” (DSM IP Assets B.V., priority 2013, dated 2023).

Legend:
Type in all cases: biochemical, human
normal plasma pool (NPP) [1] = test: PiCT Method 4 (inverted PiCT) clotting time on ACL TOP 500; settings: for Clotting time: Table 10B, PiCT Method 4, NPP spiked, mean n = 4; for PiCT ® method 4 clotting time: Table 11
Experimental: The present invention is in one aspect directed to the use of a clotting assay, in particular the PiCT® testing method on a detection system such as e.g. the ACL TOP® 500 analyzer and to a method to quantitatively and qualitatively detect anticoagulants in a sample, e.g. blood or plasma. […] PiCT® Method 4 or PiCT® inverted includes that first the start reagent is added to the sample, the mixture allowed to proceed according to the manufacturer's instructions followed by addition of the activator, i.e. a reversed order compared to standard PiCT® (see above). PiCT® Method 1 to 4 is described in more detail in the Examples.
(§1) The 4 methods (see above) are in more detail described in the Examples. Specific pipetting schemes were designed using NPP spiked with incremental amounts of anticoagulants in order to achieve high reproducibility of the test system, which is required for drug identification including use in a POC system. With regards to the ACL TOP® 500 analyzer, PiCT® Method 1 to 4 has been established as follows: • PiCT® Method 1: 50 μl of plasma is incubated for 180 sec with 50 μl of reagent 1 and afterwards 50 μl of reagent 2 is added and the time to clot is recorded on the ACL TOP® 500 (i.e. pipetting scheme: P-50/A-50/I-180/50-S).
After calculation of the RR for the different kind of anticoagulants (see Example 1) samples of NPP spiked with incremental amounts of anticoagulants were used in the ACL TOP® 500, wherein 45 μl start reagent was incubated with 140 μl plasma for 60 sec. The time to clot was recorded after addition of 40 μl of activator (i.e. so-called inverted PiCT®).

normal plasma pool (NPP) [2] = test: PiCT Method 1 (standard Pefakit PiCT) clotting time on ACL TOP 500; settings: for Clotting time with PiCT ® Method 1: spiked plasma; for Clotting time: Table 7C, PiCT Method 1, NPP spiked, mean n = 4
Description: As described by Korte et al. (supra) or in EP 1240528, Pefakit® PiCT® is a functional clotting assay based on the direct activation of the prothrombinase complex which results in a fine-tuned analytical output directly proportional to the final anticoagulant activity of the factor Xa or factor IIa inhibitors (see Calatzis, Haemostasis 2000, 30:172-174). To perform the Pefakit® PiCT® test (referred to herein as standard “PiCT® or PiCT® Method 1), a defined amount of PiCT® activator (=reagent 1) is added to a sample, such as, e.g., plasma. The mixture is allowed to proceed at 37° C. for a specific period of time. The Start reagent (=reagent 2) is then added to the mixture and the time required for clot formation is measured. The presence of anticoagulants in the samples dose-dependently prolongs the time to clot. Pefakit® PiCT® is adapted to laboratory instruments based on mechanical or optical detection systems, including but not limited to ACL TOP® family (Instrumentation Laboratory), preferably ACL TOP® 500, STA Compact® series (Stago) or the BCS® XP series (Siemens).
as §1, with “P-50/A-50/I-180/50-S). This method is in particularly useful for detection of UFH, LMWH or hirudin. • PiCT® Method 2: P-75/A-65/I-180/35-S on the ACL TOP® 500 or P-80/A-65/I-180/40-S on the STA Compact® or P-75/A-65/I-180/S-40 on the BCS® XP. This method is in particularly useful for fondaparinux. • PiCT® Method 3: P-90/A-70/I-180/40-S on the ACL TOP® 500 or STA Compact®, or P-70/A-60/I-180/45-S on the BCS® XP. This method is in particularly useful for dabigatran or argatroban. • PiCT® Method 4: P-140/S-45/I160/A-40 on the ACL TOP® 500 or STA Compact®, or P-125/S-45/I-150/A-40 on the BCS® XP. This method is in particularly useful for rivaroxaban or apixaban.” for “P-50/A-50/I-180/50-S).”
With the normal PiCT®, i.e. PiCT® Method 1, wherein 50 μl of plasma is mixed with the same amount of reagent 1 (PiCT® activator), incubated for 180 sec and mixed with the same amount of reagent 2 (PiCT® start reagent) in a ACL TOP® 500 analyzer, the presence of NOACs cannot be determined in a sample. This is true even at high levels of said drugs in the sample, i.e. in the range of 300 ng/ml. Thus, in order to determine which NOAC is present in the sample, a combination of PiCT® Method 1 and PiCT® method 4 has to be used (see above for detailed description). To confirm this, spiked plasma samples with different levels of NOACs were prepared and the clotting time measured using first PiCT® Method 1 followed by PiCT® Method 4. […] In case of dabigatran present in the sample, both PiCT® Method 1 (which had to be adapted, i.e. PiCT® Method 3) and 4 are out of range as indicated in bold.

plasma samples [3] = test: aPTT (HemosIL aPTT SP) clotting time; settings: Table 6, spiked plasma, mean
Experimental: (§2) In order to address the above question, i.e. to determine the nature of an anticoagulant in a sample, a combination of several methods has to be performed, including PiCT® Method 1, PiCT® Method 4, aPTT (HemosIL™ aPTT SP), PT (HemosIL™ PT recombiplastin), and sometimes even a modified PiCT® Method 1 wherein polybrene has been added. In order to simulate this, plasma samples spiked with different levels of anticoagulants were analyzed using the ACL TOP® 500 analyzer. For each drug, a specific pattern was obtained, i.e. clotting times within the RR and clotting times above the RR, depending on the used testing method, which is unique at least for the class of anticoagulant or even for a specific anticoagulant.

plasma samples [4] = test: PT (HemosIL PT recombiplastin) clotting time; settings: Table 6, spiked plasma, mean
Experimental: In order to address the above question, i.e. to determine the nature of an anticoagulant in a sample, a combination of several methods has to be performed, including PiCT® Method 1, PiCT® Method 4, aPTT (HemosIL™ aPTT SP), PT (HemosIL™ PT recombiplastin), and sometimes even a modified PiCT® Method 1 wherein polybrene has been added. In order to simulate this, plasma samples spiked with different levels of anticoagulants were analyzed using the ACL TOP® 500 analyzer.

plasma samples [5] = test: PiCT Method 1 with polybrene added, clotting time; settings: Table 6, spiked plasma, mean
Description: By the addition of polybrene a distinction can be done, which of the anticoagulants is really present in the sample: if after addition of polybrene the measured clotting times are again back to RR when using the PiCT® Method 1, the sample comprises heparins, such as e.g. UFH or LMWH. Alternatively, if the result is not going back to RR, the sample comprises low concentrations of dabigatran or hirudin. […] The particular clotting times measured for the different anticoagulants are shown in Table 6, which is an example of results obtained in spiked plasma samples.
as §2

Molecule: COc1ccc(-n2nc(C(N)=O)c3c2C(=O)N(c2ccc(N4CCCCC4=O)cc2)CC3)cc1 [apixaban]
- Clotting time with PiCT ® Method 4 (normal plasma pool (NPP) [1]; Table 4, NPP spiked with 20 ng per ml): 45 s
- Clotting time with PiCT ® Method 4 (normal plasma pool (NPP) [1]; Table 4, NPP spiked with 35 ng per ml): 54 s
- Clotting time with PiCT ® Method 4 (normal plasma pool (NPP) [1]; Table 5, spiked plasma, 20 ng per ml): 45 s
- Clotting time with PiCT ® Method 4 (normal plasma pool (NPP) [1]; Table 5, spiked plasma, 35 ng per ml): 54 s
- Clotting time with PiCT ® Method 4 (normal plasma pool (NPP) [1]; Table 5, spiked plasma, 300 ng per ml): 124.3 s
- Clotting time with PiCT ® Method 4 (normal plasma pool (NPP) [1]; Table 6, spiked plasma, 50 ng, mean): 54.4 s
- Clotting time with PiCT ® Method 4 (normal plasma pool (NPP) [1]; Table 6, spiked plasma, 200 ng, mean): 151.0 s
- Clotting time (normal plasma pool (NPP) [1]; 5 ng/ml): 65 s
- Clotting time (normal plasma pool (NPP) [1]; 10 ng/ml): 74 s
- Clotting time (normal plasma pool (NPP) [1]; 50 ng/ml): 109 s
- Clotting time (normal plasma pool (NPP) [1]; 100 ng/ml): 136 s
- Clotting time (normal plasma pool (NPP) [1]; 200 ng/ml): 167 s
- Clotting time (normal plasma pool (NPP) [1]; 500 ng/ml): 233 s
- PiCT ® method 4 clotting time (normal plasma pool (NPP) [1]; spiked plasma, 20 ng/mL (wash off level)): 45 sec (n = 3)
- PiCT ® method 4 clotting time (normal plasma pool (NPP) [1]; spiked plasma, 35 ng/mL (wash off level)): 54 sec (n = 3)
- Clotting time with PiCT ® Method 1 (normal plasma pool (NPP) [2]; Table 5, 20 ng per ml (title: Method 3 for dabigatran)): 18 s
- Clotting time with PiCT ® Method 1 (normal plasma pool (NPP) [2]; Table 5, 35 ng per ml (title: Method 3 for dabigatran)): 18 s
- Clotting time with PiCT ® Method 1 (normal plasma pool (NPP) [2]; Table 5, 300 ng per ml (title: Method 3 for dabigatran)): 24.9 s
- Clotting time with PiCT ® Method 1 (normal plasma pool (NPP) [2]; Table 6, 50 ng, mean): 18.9 s
- Clotting time with PiCT ® Method 1 (normal plasma pool (NPP) [2]; Table 6, 200 ng, mean): 22.3 s
- Clotting time with aPTT (plasma samples [3]; 50 ng): 31.0 s
- Clotting time with aPTT (plasma samples [3]; 200 ng): 36.4 s
- Clotting time with PT (plasma samples [4]; 50 ng): 11.2 s

Molecule: lepirudin [hirudin]
- Clotting time with PiCT ® Method 4 (normal plasma pool (NPP) [1]; Table 4, NPP spiked with 0.4 μg per ml): 300 s
- Clotting time with PiCT ® Method 4 (normal plasma pool (NPP) [1]; Table 6, spiked plasma, 0.4 μg, mean): 300.0 s
- Clotting time with PiCT ® Method 4 (normal plasma pool (NPP) [1]; Table 6, spiked plasma, 2.5 μg, mean): 300.0 s
- Clotting time with PiCT ® Method 1 (normal plasma pool (NPP) [2]; Table 6, 0.4 μg, mean): 88.9 s
- Clotting time with PiCT ® Method 1 (normal plasma pool (NPP) [2]; Table 6, 2.5 μg, mean): 264.5 s
- Clotting time (normal plasma pool (NPP) [2]; 0.2 μg/ml): 41 s
- Clotting time (normal plasma pool (NPP) [2]; 0.4 μg/ml): 55 s
- Clotting time (normal plasma pool (NPP) [2]; 0.6 μg/ml): 69 s
- Clotting time (normal plasma pool (NPP) [2]; 0.9 μg/ml): 86 s
- Clotting time (normal plasma pool (NPP) [2]; 1.3 μg/ml): 113 s
- Clotting time (normal plasma pool (NPP) [2]; 1.7 μg/ml): 142 s
- Clotting time (normal plasma pool (NPP) [2]; 2.0 μg/ml): 158 s
- Clotting time (normal plasma pool (NPP) [2]; 2.4 μg/ml): 183 s
- Clotting time (normal plasma pool (NPP) [2]; 2.8 μg/ml): 209 s
- Clotting time (normal plasma pool (NPP) [2]; 3.0 μg/ml): 219 s
- Clotting time with PiCT ® Method 1 + polybrene (plasma samples [5]; 0.4 μg): 89.5 s
- Clotting time with PiCT ® Method 1 + polybrene (plasma samples [5]; 2.5 μg): 258.0 s
- Clotting time with aPTT (plasma samples [3]; 0.4 μg): 60.6 s
- Clotting time with aPTT (plasma samples [3]; 2.5 μg): 108.8 s
- Clotting time with PT (plasma samples [4]; 0.4 μg): 11.8 s
- Clotting time with PT (plasma samples [4]; 2.5 μg): 14.6 s
